According to ChEMBL document CHEMBL5030517, “6-Halopyridylmethylidene Penicillin-Based Sulfones Efficiently Inactivate the Natural Resistance of Pseudomonas aeruginosa to β-Lactam Antibiotics” (J Med Chem, 2021):
In brackets after ≈: the same amount, converted by molar mass.

How the values were obtained:
Format in all cases: functional
Pseudomonas aeruginosa [1] = test: Antibacterial activity against Pseudomonas aeruginosa PAO1 13/09-018 (ST-175) by broth microdilution method
Pseudomonas aeruginosa [2] = test: Antibacterial activity against Pseudomonas aeruginosa PAO1 deltaDdeltsDh2deltaDh3 by broth microdilution method
Pseudomonas aeruginosa [3] = test: Antipseudomonal activity against Pseudomonas aeruginosa PAO1 deltadacB assessed as AmpC RNA expression by RT-PCR analysis relative to Pseudomonas aeruginosa PAO1
Pseudomonas aeruginosa [4] = test: Antibacterial activity against Pseudomonas aeruginosa PAO1 deltaampD by broth microdilution method
Pseudomonas aeruginosa [5] = test: Antipseudomonal activity against pseudomonas aeruginosa PAO deltadacBdeltapbpGdeltadacC assessed as AmpC RNA level relative to Pseudomonas aeruginosa PAO1
Pseudomonas aeruginosa [6] = test: Antipseudomonal activity against pseudomonas aeruginosa PAO deltaDdeltsDh2deltaDh3 assessed as AmpC RNA level relative to Pseudomonas aeruginosa PAO1
Pseudomonas aeruginosa [7] = test: Antibacterial activity against Pseudomonas aeruginosa PAO1 deltadacB by broth microdilution method
Pseudomonas aeruginosa [8] = test: Antibacterial activity against Pseudomonas aeruginosa PAO1 PAHUAC-27(ST-22) by broth microdilution method
Pseudomonas aeruginosa [9] = test: Antipseudomonal activity against pseudomonas aeruginosa Pseudomonas aeruginosa 36/14-210 (ST-235) assessed as AmpC RNA level relative to Pseudomonas aeruginosa PAO1
Pseudomonas aeruginosa [10] = test: Antipseudomonal activity against pseudomonas aeruginosa Pseudomonas aeruginosa 6/04-224 (ST-175) assessed as AmpC RNA level relative to Pseudomonas aeruginosa PAO1
Pseudomonas aeruginosa [11] = test: Antipseudomonal activity against pseudomonas aeruginosa PAO1 AmpC RNA level assessed as AmpC RNA level relative to Pseudomonas aeruginosa PAO1
Pseudomonas aeruginosa [12] = test: Antipseudomonal activity against pseudomonas aeruginosa PAOdeltaampD AmpC RNA level assessed as AmpC RNA level relative to Pseudomonas aeruginosa PAO1
Pseudomonas aeruginosa [13] = test: Antibacterial activity against Pseudomonas aeruginosa PAO1 deltadacBdeltapbpGdeltadacC by broth microdilution method
Pseudomonas aeruginosa [14] = test: Antibacterial activity against Pseudomonas aeruginosa PAO1 6/04-224 (ST-175) by broth microdilution method
Pseudomonas aeruginosa [15] = test: Antipseudomonal activity against pseudomonas aeruginosa PAOdeltaC+pUCP-(PDC-1) assessed as AmpC RNA level relative to Pseudomonas aeruginosa PAO1
Pseudomonas aeruginosa [16] = test: Antibacterial activity against Pseudomonas aeruginosa PAO1 deltadacBdeltaampD by broth microdilution method
Pseudomonas aeruginosa [17] = test: Antipseudomonal activity against pseudomonas aeruginosa Pseudomonas aeruginosa PAHUAC-14 (ST-966) assessed as AmpC RNA level relative to Pseudomonas aeruginosa PAO1
Pseudomonas aeruginosa [18] = test: Antibacterial activity against PAOdeltaC by broth microdilution method
Pseudomonas aeruginosa [19] = test: Antibacterial activity against Pseudomonas aeruginosa PAO1 36/14-210 (ST-235) by broth microdilution method
Pseudomonas aeruginosa [20] = test: Antibacterial activity against Pseudomonas aeruginosa PAO1 by broth microdilution method
Pseudomonas aeruginosa [21] = test: Antipseudomonal activity against pseudomonas aeruginosa Pseudomonas aeruginosa 13/09-018 (ST-175) assessed as AmpC RNA level relative to Pseudomonas aeruginosa PAO1
Pseudomonas aeruginosa [22] = test: Antibacterial activity against Pseudomonas aeruginosa PAO1 53/22-113 (ST-244) by broth microdilution method
Pseudomonas aeruginosa [23] = test: Antipseudomonal activity against pseudomonas aeruginosa Pseudomonas aeruginosa PAHUAC-27(ST-22) assessed as AmpC RNA level relative to Pseudomonas aeruginosa PAO1
Pseudomonas aeruginosa [24] = test: Antipseudomonal activity against pseudomonas aeruginosa PAOdeltaC AmpC RNA level assessed as AmpC RNA level relative to Pseudomonas aeruginosa PAO1
Pseudomonas aeruginosa [25] = test: Antibacterial activity against Pseudomonas aeruginosa PAO1 PAHUAC-14 (ST-966) by broth microdilution method
Pseudomonas aeruginosa [26] = test: Antipseudomonal activity against pseudomonas aeruginosa PAOdeltaC+pUCP-(PDC-5) assessed as AmpC RNA level relative to Pseudomonas aeruginosa PAO1
Pseudomonas aeruginosa [27] = test: Antibacterial activity against Pseudomonas aeruginosa PAO1 deltaC+pUCP-(PDC-5) by broth microdilution method
Pseudomonas aeruginosa [28] = test: Antibacterial activity against Pseudomonas aeruginosa PAO1 deltadacBdeltadacC by broth microdilution method
Pseudomonas aeruginosa [29] = test: Antipseudomonal activity against pseudomonas aeruginosa Pseudomonas aeruginosa 23/14-053 (ST-309) assessed as AmpC RNA level relative to Pseudomonas aeruginosa PAO1
Pseudomonas aeruginosa [30] = test: Antibacterial activity against Pseudomonas aeruginosa PAO1 17/14-017 (ST-235) by broth microdilution method
Pseudomonas aeruginosa [31] = test: Antipseudomonal activity against pseudomonas aeruginosa Pseudomonas aeruginosa 17/14-017 (ST-235) assessed as AmpC RNA level relative to Pseudomonas aeruginosa PAO1
Pseudomonas aeruginosa [32] = test: Antipseudomonal activity against pseudomonas aeruginosa Pseudomonas aeruginosa 53/22-113 (ST-244) assessed as AmpC RNA level relative to Pseudomonas aeruginosa PAO1
Pseudomonas aeruginosa [33] = test: Antibacterial activity against Pseudomonas aeruginosa PAO1 deltaC+pUCP-(PDC-1) by broth microdilution method
Pseudomonas aeruginosa [34] = test: Antipseudomonal activity against pseudomonas aeruginosa PAO deltadacBdeltadacC assessed as AmpC RNA expression by RT-PCR analysis relative to Pseudomonas aeruginosa PAO1
Pseudomonas aeruginosa [35] = test: Antipseudomonal activity against pseudomonas aeruginosa PAO deltadacBdeltaampD assessed as AmpC RNA expression by RT-PCR analysis Pseudomonas aeruginosa PAO1
Pseudomonas aeruginosa [36] = test: Antibacterial activity against Pseudomonas aeruginosa PAO1 23/14-053 (ST-309) by broth microdilution method

## CC(C)(O/N=C(\C(=O)N[C@@H]1C(=O)N2C(C(=O)[O-])=C(C[n+]3ccccc3)CS[C@H]12)c1csc(N)n1)C(=O)O [CEFTAZIDIME]
Pseudomonas aeruginosa [1]
  MIC: 8 µg/mL (≈ 14.6 µM)
Pseudomonas aeruginosa [2]
  MIC: 32 µg/mL (≈ 58.5 µM)
Pseudomonas aeruginosa [3]
  FC: 36 µg/mL
Pseudomonas aeruginosa [4]
  MIC: 16 µg/mL (≈ 29.3 µM)
Pseudomonas aeruginosa [5]
  fold change (FC): 1109.9
Pseudomonas aeruginosa [6]
  fold change (FC): 1030.2
Pseudomonas aeruginosa [7]
  MIC: 16 µg/mL (≈ 29.3 µM)
Pseudomonas aeruginosa [8]
  MIC: 32 µg/mL (≈ 58.5 µM)
Pseudomonas aeruginosa [9]
  fold change (FC): 18.6
Pseudomonas aeruginosa [10]
  fold change (FC): 10.1
Pseudomonas aeruginosa [11]
  fold change (FC): 1
Pseudomonas aeruginosa [12]
  fold change (FC): 51.4
Pseudomonas aeruginosa [13]
  MIC: 16 µg/mL (≈ 29.3 µM)
Pseudomonas aeruginosa [14]
  MIC: 32 µg/mL (≈ 58.5 µM)
Pseudomonas aeruginosa [15]
  fold change (FC): 1933.4
Pseudomonas aeruginosa [16]
  MIC: 32 µg/mL (≈ 58.5 µM)
Pseudomonas aeruginosa [17]
  fold change (FC): 586.3
Pseudomonas aeruginosa [18]
  MIC: 1 µg/mL (≈ 1.83 µM)
Pseudomonas aeruginosa [19]
  MIC: 128 µg/mL (≈ 234 µM)
Pseudomonas aeruginosa [20]
  MIC: 1 µg/mL (≈ 1.83 µM)
Pseudomonas aeruginosa [21]
  fold change (FC): 2.4
Pseudomonas aeruginosa [22]
  MIC: 64 µg/mL (≈ 117 µM)
Pseudomonas aeruginosa [23]
  fold change (FC): 326.4
Pseudomonas aeruginosa [24]
  fold change (FC): 0
Pseudomonas aeruginosa [25]
  MIC: 64 µg/mL (≈ 117 µM)
Pseudomonas aeruginosa [26]
  fold change (FC): 4084.8
Pseudomonas aeruginosa [27]
  MIC: 16 µg/mL (≈ 29.3 µM)
Pseudomonas aeruginosa [28]
  MIC: 16 µg/mL (≈ 29.3 µM)
Pseudomonas aeruginosa [29]
  fold change (FC): 6.4
Pseudomonas aeruginosa [30]
  MIC: 16 µg/mL (≈ 29.3 µM)
Pseudomonas aeruginosa [31]
  fold change (FC): 32.8
Pseudomonas aeruginosa [32]
  fold change (FC): 1415.3
Pseudomonas aeruginosa [33]
  MIC: 16 µg/mL (≈ 29.3 µM)
Pseudomonas aeruginosa [34]
  fold change (FC): 472.3
Pseudomonas aeruginosa [35]
  fold change (FC): 1021.4
Pseudomonas aeruginosa [36]
  MIC: 8 µg/mL (≈ 14.6 µM)
